Test results taken from the supplement of paper PMC10307832.

Key:
Experiment in all cases: relative viability (nuclei count vs DMSO), 5 days (fraction); higher = more cells survive
AZ505 + Navitoclax = compound: C1CCC(CC1)N(CCNCCC2=C3C(=C(C=C2)O)NC(=O)CO3)C(=O)CCNCCC4=CC(=C(C=C4)Cl)Cl [AZ505] + CC1(C)CCC(c2ccc(Cl)cc2)=C(CN2CCN(c3ccc(C(=O)NS(=O)(=O)c4ccc(N[C@H](CCN5CCOCC5)CSc5ccccc5)c(S(=O)(=O)C(F)(F)F)c4)cc3)CC2)C1 [Navitoclax] (partner 0.5 µM)
How it was run: (§1)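 Lung cancer cell lines, seeded in 1536-well plates, were treated the following day by pin tool with a single drug or with five library-drug doses (not always all listed) in √10 steps on top of a fixed anchor-drug dose. Cells were fixed and nuclei stained in one step after 5 days, and nuclei were counted. Relative viability is the nuclei count for treated wells divided by that for vehicle wells, reported as medians of duplicate plates.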

AZ505 + Phenformin = compound: C1CCC(CC1)N(CCNCCC2=C3C(=C(C=C2)O)NC(=O)CO3)C(=O)CCNCCC4=CC(=C(C=C4)Cl)Cl [AZ505] + N=C(N)NC(=N)NCCc1ccccc1 [Phenformin] (partner 250 µM)
How it was run: as §1

Dactolisib + Luminespib = compound: Cn1c(=O)n(-c2ccc(C(C)(C)C#N)cc2)c2c3cc(-c4cnc5ccccc5c4)ccc3ncc21 [Dactolisib] + CCNC(=O)c1noc(-c2cc(C(C)C)c(O)cc2O)c1-c1ccc(CN2CCOCC2)cc1 [Luminespib] (partner 0.01 µM)
How it was run: as §1

Dactolisib + Alpelisib = compound: Cn1c(=O)n(-c2ccc(C(C)(C)C#N)cc2)c2c3cc(-c4cnc5ccccc5c4)ccc3ncc21 [Dactolisib] + Cc1nc(NC(=O)N2CCC[C@H]2C(N)=O)sc1-c1ccnc(C(C)(C)C(F)(F)F)c1 [Alpelisib] (partner 2 µM)
How it was run: as §1

| Cell Line | relative viability (AZ505 + Navitoclax; first compound 0.08 µM) | relative viability (AZ505 + Navitoclax; first compound 0.253 µM) | relative viability (AZ505 + Navitoclax; first compound 0.8 µM) | relative viability (AZ505 + Navitoclax; first compound 2.53 µM) | relative viability (AZ505 + Navitoclax; first compound 8 µM) | relative viability (AZ505 + Phenformin; first compound 0.253 µM) | relative viability (AZ505 + Phenformin; first compound 0.8 µM) | relative viability (AZ505 + Phenformin; first compound 2.53 µM) | relative viability (AZ505 + Phenformin; first compound 8 µM) | relative viability (Dactolisib + Luminespib; first compound 0.002 µM) | relative viability (Dactolisib + Luminespib; first compound 0.006325 µM) | relative viability (Dactolisib + Luminespib; first compound 0.02 µM) | relative viability (Dactolisib + Luminespib; first compound 0.06325 µM) | relative viability (Dactolisib + Luminespib; first compound 0.2 µM) | relative viability (Dactolisib + Alpelisib; first compound 0.002 µM) | relative viability (Dactolisib + Alpelisib; first compound 0.006325 µM) | relative viability (Dactolisib + Alpelisib; first compound 0.02 µM) | relative viability (Dactolisib + Alpelisib; first compound 0.06325 µM) | relative viability (Dactolisib + Alpelisib; first compound 0.2 µM) | relative viability (AZ505 + Phenformin; first compound 0.08 µM) |
| --- | --- | --- | --- | --- | --- | --- | --- | --- | --- | --- | --- | --- | --- | --- | --- | --- | --- | --- | --- | --- |
| LU99A | 0.745 | 0.814 | 0.839 | 0.894 | 0.749 | 0.741 | 0.987 | 0.715 | 0.853 | 0.257 | 0.228 | 0.29 | 0.202 | 0.192 | 0.483 | 0.333 | 0.273 | 0.242 | 0.192 |  |
| LXF-289 | 0.891 |  | 0.919 | 0.881 | 0.935 | 0.491 | 0.512 | 0.509 | 0.514 | 0.698 | 0.688 | 0.669 | 0.478 | 0.403 | 1.12 | 0.973 | 1.01 | 0.927 | 0.597 | 0.488 |
| NCI-H23 | 0.71 |  | 0.849 | 0.819 | 0.694 |  | 0.741 | 0.759 | 0.821 | 0.205 | 0.208 | 0.222 | 0.191 | 0.203 | 0.629 | 0.607 | 0.615 | 0.356 | 0.303 | 0.731 |
| NCI-H322M | 1.18 | 1.1 | 1.16 | 1.1 | 1.28 | 0.756 | 0.718 | 0.728 | 0.826 | 0.36 | 0.741 | 0.612 | 0.4 | 0.323 | 0.899 | 0.839 | 0.8 | 0.609 | 0.511 | 0.75 |
| NCI-H441 | 0.691 | 0.682 | 0.545 | 0.716 | 0.505 | 0.814 | 0.905 | 0.907 | 0.786 | 0.446 | 0.331 | 0.305 | 0.285 | 0.206 | 1.05 | 0.74 | 0.685 | 0.429 | 0.271 | 0.742 |
| NCI-H460 | 1.02 | 1.19 | 0.965 | 1.11 | 1.2 | 0.534 | 0.48 | 0.482 | 0.551 | 0.0375 | 0.0432 | 0.0185 | 0.0179 | 0.0243 | 0.723 | 0.352 | 0.35 | 0.0712 | 0.0542 | 0.448 |
| NCI-H520 | 1.05 | 1.23 | 1.12 | 1.22 | 1.07 | 0.49 | 0.683 | 0.825 | 0.529 | 0.22 | 0.184 | 0.233 | 0.207 | 0.204 | 1.11 | 0.657 | 0.753 | 0.263 | 0.194 | 0.556 |
| NCI-H596 | 0.862 | 0.806 | 0.597 | 0.803 | 0.87 | 0.833 | 0.859 | 0.719 | 0.754 | 0.925 | 0.938 | 0.583 | 0.347 | 0.28 | 0.461 | 0.474 | 0.386 | 0.322 | 0.259 | 0.619 |
| NCI-H647 | 1.02 | 1.22 | 1.14 | 0.97 | 1.32 | 0.314 | 0.479 | 0.488 | 0.702 | 0.153 | 0.149 | 0.109 | 0.0951 | 0.0891 | 1.33 | 0.811 | 0.543 | 0.164 | 0.125 | 0.574 |
| NCI-H727 | 0.501 | 0.461 | 0.471 | 0.428 | 0.483 | 0.461 | 0.525 |  | 0.613 | 0.417 | 0.419 | 0.351 | 0.436 | 0.447 | 0.601 | 0.525 | 0.4 | 0.291 | 0.304 | 0.651 |
| NCI-H838 | 1.12 | 1.13 | 1.13 | 1.11 | 1.11 | 0.491 | 0.49 | 0.466 | 0.579 | 0.285 | 0.377 | 0.317 | 0.174 | 0.159 | 0.926 | 0.704 | 0.699 | 0.287 | 0.283 | 0.503 |
| NCI-H1355 | 0.883 | 0.864 | 0.908 | 0.915 | 0.987 | 0.407 | 0.477 | 0.481 | 0.499 | 0.862 | 0.705 | 0.529 | 0.276 | 0.186 | 0.941 | 0.794 | 0.723 | 0.385 | 0.255 | 0.433 |
| NCI-H1395 | 1.09 | 1.06 | 1.06 | 1.07 | 1.18 | 0.461 | 0.426 | 0.483 | 0.479 | 0.544 | 0.681 | 0.678 | 0.434 | 0.43 | 0.863 | 0.757 | 1.23 | 0.602 | 0.511 | 0.435 |
| NCI-H1437 | 1.03 | 1.14 | 1.06 | 1.07 | 1.08 | 0.286 | 0.298 | 0.317 | 0.311 | 1.15 | 1.18 | 1.21 | 1.14 | 0.59 | 1 | 0.991 | 0.918 | 0.836 | 0.81 | 0.311 |
| NCI-H1651 | 1.06 | 1.07 | 1.03 | 1.12 | 1.01 | 0.346 | 0.318 | 0.357 | 0.345 | 1.13 | 0.818 | 0.863 | 0.309 | 0.321 | 1.11 | 0.79 | 0.69 | 0.461 | 0.422 | 0.385 |
| NCI-H1666 | 0.969 | 1.06 | 0.99 | 0.896 | 0.894 | 0.599 | 0.587 | 0.557 | 0.483 | 1.1 | 0.963 | 1.02 | 0.746 | 0.788 | 1.08 | 0.83 | 0.806 | 0.506 | 0.402 | 0.56 |
